# Test results reported in ChEMBL document CHEMBL3351886.
# Activity calls are given as the source filed them. The rule behind the calls is not given here.
# Legend:
# Assay type in all cases: cell-based
# NG108-15 [1] = experiment: Agonist activity at AT2 receptor in rat and mouse hybridoma NG108-15 cells assessed as induction of neurite outgrowth at 100 nM after 3 days in presence of 1 uM AT2 receptor antagonist PD 123,319 by phase contrast microscopy
# NG108-15 [2] = experiment: Antagonist activity at AT2 receptor in rat and mouse hybridoma NG108-15 cells assessed as reduction in angiotensin-2-induced neurite outgrowth at 100 nM after 3 days by phase contrast microscopy
# NG108-15 [3] = experiment: Agonist activity at AT2 receptor in rat and mouse hybridoma NG108-15 cells assessed as induction of neurite outgrowth at 100 nM after 3 days by phase contrast microscopy
Structure (SMILES),Activity (NG108-15 [1]),inhibition (NG108-15 [2]),Activity (NG108-15 [3])
CNCC(=O)N[C@@H](CCCNC(=N)N)C(=O)N[C@H](C(=O)N[C@@H](Cc1ccc(O)cc1)C(=O)N[C@H](C(=O)N[C@@H](Cc1cnc[nH]1)C(=O)N1CCC[C@H]1C(=O)N[C@@H](C)C(=O)O)C(C)C)C(C)C,inactive,inactive,Active
CC[C@H](C)[C@H](NC(=O)[C@H](Cc1ccc(O)cc1)NC(=O)[C@@H](NC(=O)[C@H](CCCNC(=N)N)NC(=O)[C@@H](N)CC(=O)O)C(C)C)C(=O)N[C@@H](Cc1cnc[nH]1)C(=O)N1CCC[C@H]1C(=O)N[C@@H](Cc1ccccc1)C(=O)O,inactive,–,Active
CC[C@H](C)[C@H](NC(=O)[C@@H]1CCCN1C(=O)[C@H](Cc1c[nH]cn1)NC(=O)[C@@H](NC(=O)[C@H](Cc1ccc(O)cc1)NC(=O)[C@@H](NC(=O)[C@H](CCCN=C(N)N)NC(=O)CNC)C(C)C)[C@@H](C)CC)C(=O)O,inactive,inactive,Active
